Measurements published in PMC4704022, “Insights on FXR selective modulation. Speculation on bile acid chemical space in the discovery of potent and selective agonists” (Scientific Reports, 2016).
Entries after “also recorded” stand apart in the source; their conditions may differ.

Legend:
GPBAR1 [1] = biological target: T1, GPBAR1 (Homo sapiens, UniProt Q8TDU6); assay: GPBAR1 agonism, CRE-luciferase transactivation assay in transfected HEK-293T cells; type: cell-based; details: HEK-293T, compounds at 10 μM; TLCA 10 μM as positive control
T1 construct: expressed in transfected cells; host or cells: HEK-293T
T1 sequence (Q8TDU6 1-330): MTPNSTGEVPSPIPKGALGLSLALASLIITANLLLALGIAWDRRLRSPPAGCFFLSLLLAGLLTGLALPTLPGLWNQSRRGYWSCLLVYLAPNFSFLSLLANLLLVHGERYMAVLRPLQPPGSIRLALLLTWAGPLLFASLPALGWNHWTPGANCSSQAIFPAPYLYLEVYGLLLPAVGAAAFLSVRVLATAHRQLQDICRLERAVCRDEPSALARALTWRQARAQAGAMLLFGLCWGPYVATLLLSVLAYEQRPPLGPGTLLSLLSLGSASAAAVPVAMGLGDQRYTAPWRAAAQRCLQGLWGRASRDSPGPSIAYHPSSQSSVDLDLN
Protocol: (A) HEK-293T cells were co-transfected with GPBAR1 and a reporter gene containing a cAMP responsive element in front of the luciferase gene. Twenty-four hour post transfection cells were stimulated with 7–21 (10 μM). Luciferase activity served as a measure of the rise in intracellular cAMP following activation of GPBAR1. […] Twenty-four hour post transfection cells were stimulated with increasing concentrations of each agent: range from 100 nM to 50 μM. Results are expressed as mean ± standard error.
(§1) To investigate GPBAR1 activation, HEK-293T cells were transiently transfected with Fugene HD reagent (Promega) using the following vectors: pCMVSPORT6-human GPBAR1, pGL4.29 (Promega), a reporter vector containing a cAMP response element (CRE) cloned upstream to the luciferase reporter gene luc2P and pGL4.70. […] Dose-response curves were performed in HEK-293T cells transfected as described above and treated with increasing concentrations of 9 and 21 (from 100 nM to 50 μM). […] At 18 h post stimulations, cellular lysate was assayed for luciferase and renilla activities using the Dual-Luciferase Reporter assay system (E1980, Promega). Luminescence was measured using Glomax 20/20 luminometer (Promega). Luciferase activities were normalized with Renilla activities.

GPBAR1 [2] = biological target: T1, GPBAR1; assay: GPBAR1 antagonism, transactivation assay in HEK-293T cells stimulated with TLCA; type: cell-based
Text: Figure 9 Antagonism on GPBAR1 by transactivation assay. (A) HEK-293T cells were transfected as described in Fig. 8. […] Results are expressed as mean ± standard error.
as §1

FXR-LBD = biological target: T2, FXR-LBD (Homo sapiens, UniProt Q96RI1); assay: Alphascreen coactivator recruitment assay, FXR-LBD with SRC-1 peptide; type: biochemical; details: ligand at 2 μM, effect of 6 set as 100%
T2 construct: 10 nM of purified GST-tagged FXR-LBD protein
T2 sequence (Q96RI1 262-486 limits assumed): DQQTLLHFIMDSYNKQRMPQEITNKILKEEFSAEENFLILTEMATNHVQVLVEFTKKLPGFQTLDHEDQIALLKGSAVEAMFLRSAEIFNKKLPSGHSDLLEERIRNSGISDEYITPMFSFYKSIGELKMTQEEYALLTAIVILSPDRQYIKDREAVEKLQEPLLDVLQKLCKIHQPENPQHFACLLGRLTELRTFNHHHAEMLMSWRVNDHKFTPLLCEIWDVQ
Protocol: Figure 7 Coactivator recruitment assay measuring a direct interaction of FXR with SRC-1. Anti-GST-coated acceptor beads captured GST-fusion FXR-LBD and the biotinylated-SRC-1 peptide was captured by the streptavidin donor beads. FXR-LBD recruited SRC-1 in the presence of ligand at 2 μM and, upon illumination at 680 nm, chemical energy is transferred from donor to acceptor beads across the complex streptavidin-donor/Src-1-biotin/ligand/GSTFXR-LBD/anti-GST-acceptor and a signal is produced. Results are expressed as percentage of the effect of 6 arbitrarily settled as 100%. NT is referred to the experiment carried out in absence of ligand. Results are expressed as mean ± standard error.
The relative potency of selected members of this novel family was then investigated by a detailed measurement of concentration-response curve of the 3-deoxy sulfate derivative 9, the corresponding carboxylic acid 10, and the 3β-hydroxyl alcohol 15 and carboxylic acid derivative 17, all sharing the 6α/7α configuration, on FXR transactivation. […] In this assay, the ligand induces the recruitment of the coactivator to the LBD of hFXR.
Anti-GST-coated acceptor beads were used to capture the GST-fusion FXR-LBD, whereas the biotinylated-SRC-1 peptide was captured by the streptavidin donor beads. Upon illumination at 680 nm, chemical energy is transferred from donor to acceptor beads across the complex streptavidin-donor/Src-1-biotin/GSTFXR-LBD/anti-GST-acceptor and a signal is produced. The assay was performed in white, low-volume, 384-well Optiplates (PerkinElmer) using a final volume of 25 μL containing final concentrations of 10 nM of purified GST-tagged FXR-LBD protein, 30 nM biotinylated Src-1 peptide, 20 μg/mL anti-GST acceptor beads acceptor beads, and 10 μg/mL of streptavidin donor bead (PerkinElmer). The assay buffer contained 50 mM Tris (pH 7.4), 50 mM KCl, 0.1% BSA, and 1 mM DTT. […] After the addition of the detection mix (acceptor and donor beads), the plates were incubated in the dark for 4 h at room temperature and then were read in an Envision microplate analyzer (PerkinElmer).

[3] = system: FXR target genes (OSTα, SHP, BSEP); assay: In vivo effect on FXR target genes in mouse liver (Real-Time PCR); set-up: species or system C57BL6 mice; details: mice, 15 mg/kg ip, 6 h, versus control mice
Protocol: Figure 10 In vivo effect of 10 on FXR target genes. C57BL6 mice were administered with 10 (15 mg/Kg) for 6 h. After treatment liver were removed and the relative mRNA expression of OSTα, SHP and BSEP was assayed by quantitative Real-Time PCR. *p < 0.05 versus control mice.
C57BL6 mice were administered with compound 10 (15 mg/kg, ip). At 6 h post-treatment, livers and blood were collected.
Total RNA was extracted using the TRIzol reagent (Life Technologies). First, 1 μg of RNA was purified of the genomic DNA by DNase I treatment (Life Technologies) and random reverse-transcribed with Superscript II (Life Technologies) in a 20 μL reaction volume. Then 10 ng of cDNA was amplified in a final volume of 20 μL in a mix containing 200 nM of each sense/antisense primers and 10 μL of 2× SYBR Select Master mix (Life Technologies). RT-PCR reactions were performed in duplicate and the thermal cycling conditions were: 2 min at 95 °C, followed by 40 cycles of 95 °C for 20 s, 60 °C for 30 s on Step One Plus Instrument (ABI). The relative mRNA expression was calculated and expressed as 2^−(ΔΔCt). Sense and antisense primer sequences were the following: mouse GAPDH, […] and […]; mOSTα, […] and […]; mBSEP, […] and […]; mSHP, […] and […].

With `CC[C@H]1[C@@H](O)[C@@H]2[C@H](CC[C@]3(C)[C@@H]([C@H](C)CCC(=O)O)CC[C@@H]23)[C@@]2(C)CCCC[C@@H]12` [compound 10, 6α-ethyl-7α-hydroxy-5β-cholan-24-oic acid] the “GPBAR1 agonism (in words)” value (GPBAR1 [1]) was “inactive towards GPBAR1 in agonistic mode; also recorded: devoid of any activity toward GPBAR1 in agonistic mode”, the “GPBAR1 antagonism (in words)” value (GPBAR1 [2]; HEK-293T, 10 μM TLCA in combination with 25 μM compound) was “showed inhibitory activity against GPBAR1 transactivation induced by TLCA” and the IC50 (GPBAR1 [2]; read-out: IC50, antagonism of TLCA-induced GPBAR1 transactivation) was 11 µM. The “Recruitment of SRC-1 coactivator to FXR-LBD (in words)” value (FXR-LBD) was “very potent activity in the recruitment of SRC-1 co-activator”, the “Relative mRNA expression of BSEP in liver” value [3] was “significantly up-regulated; also recorded: increased the expression” and the “Relative mRNA expression of OSTα in liver” value [3] was “significantly up-regulated; also recorded: increased the expression”. The “Relative mRNA expression of SHP in liver” value [3] was “significantly up-regulated; also recorded: increased the expression”.
